# Measured values from patent US11564912B2, “Methods for treating irritable bowel syndrome (IBS)” (Salix Pharmaceuticals, Inc., priority 2008, dated 2023).
# Several values for one entry are separate records, joined by “and”; a condition that tells them apart may be missing. Equal entries are not always repeated.
# Tests used:
# [1] = system: subjects with dIBS; test: Study of rifaximin BID in subjects with dIBS: adequate relief of IBS symptoms and bloating; type: in vivo, human; details: for Percentage of Subjects with Adequate Relief of Bloating Symptom / Percentage of Subjects with Adequate Relief of IBS Symptoms: RFX 550 mg BID 14 days, N = 191, ITT, at least two of the final three weeks of treatment phase (Weeks 1 to 4); for Adequate Relief of Bloating, Post Treatment: Failures / Adequate Relief of Bloating, Post Treatment: Success / Adequate Relief of Bloating, Post Treatment: Failure: RFX 550 2 w (N = 54); for Patients with adequate relief of bloating / Patients with adequate relief of global IBS symptoms: rifaximin 550 mg twice daily 14 days
# Description: This example relates to a study of rifaximin in subjects with dIBS. […] There were two measures of efficacy assessed. Subjects were questioned on the relief of overall IBS symptoms and bloating. […] The analyses defined success as a “yes” response to questions regarding adequate relief.
# All subpopulations in the study responded to therapy. Baseline severity was determined using 7-point Lickert scales during screening for Abdominal Pain/Discomfort and Bloating, and the number, type (normal, hard, loose) and urgency of bowel movements.
# Duration of effect was assessed in a follow-up period. Subjects that responded in the 4 week treatment period were followed for an additional 3 months.
# The effect of treatment on the percentage of subjects who reported adequate relief of IBS and bloating symptoms for at least two of the final three weeks during the treatment phase (Weeks 1 to 4) is shown in Tables 3-5 and FIGS. 4-6 below.
# Two measures of efficacy were assessed independently. The first was the proportion of subjects who provided a ‘yes’ response to the weekly SGA question: “In the past 7 days, have you had adequate relief of your IBS symptoms? (yes/no)”. The second endpoint was the proportion of subjects who provide a ‘yes’ response to the weekly individual symptom question: “In the past 7 days, have you had adequate relief of your symptom of bloating? (yes/no)”. Durability was based on the proportion of subjects that had adequate relief over the entire treatment phase.
# It is reported herein that the severity of baseline symptoms of abdominal pain and bloating influenced the response to rifaximin treatment. The co-primary endpoints in this analysis assessed weekly yes/no responses to questions regarding adequate relief of global IBS symptoms and IBS-associated bloating. Severity of baseline IBS symptoms was evaluated as a potential confounder of clinical response and was categorized as mild/moderate or severe based on a mean score of ≤4 vs. >4 (on a 7-point scale) for bloating and abdominal pain.
# The Weekly yes/no responses to questions regarding adequate relief of global IBS symptoms and IBS-associated bloating were assessed. Clinical response was defined as adequate relief for 2 of the final 3 treatment weeks (wk 2, 3, or 4). Severity of baseline IBS symptoms was evaluated as a potential confounder of clinical response and was categorized as mild/moderate or severe based on a mean score of ≤4 versus >4 (on a 7-point scale (0=not bothersome; 6=very bothersome)) for bloating and abdominal pain.
# [2] = system: subjects with dIBS; test: as above; type: in vivo, human; details: rifaximin 550 mg BID 14 days, patients with dIBS
# [3] = RFX 550 mg BID vs placebo, ITT, listed as RFX
# [4] = RFX 550 mg BID, responders followed through week 16
# [5] = patients with mild/moderate abdominal pain at baseline
# [6] = patients with mild/moderate bloating at baseline
substance,measurement,setting,value
"(2S,16Z,18E,20S,21S,22R, 23R,24R,25S,26S,27S,28E)-5,6,21,23,25 Pentahydroxy-27-methoxy -2,4,11,16,20,22,24,26-octamethyl-2,7-(epoxypentadeca-(1,11,13)trienimino)benzofuro (4,5-e) pyrido(1,2,-a) benzimidazole-1,15(2H)-dione,25-acetate [Rifaximin]",Adequate Relief of IBS Symptoms at the End of the Treatment Phase: Success,"[1]; Male, RFX 550 2 w (N = 191)",29 (53.7%) n (%)
same,"odds ratio, Adequate Relief of Bloating at the End of the Treatment Phase","[1]; Male, RFX 550 2 w vs. PBO","Comparison of RFX 550 2 w vs. PBO p-value: 0.0802, odds ratio: 2.148 (0.912, 5.057)"
same,"odds ratio, Adequate Relief of IBS Symptoms at the End of the Treatment Phase","[1]; Male, RFX 550 2 w vs. PBO","Comparison of RFX 550 2 w vs. PBO p-value: 0.0326, odds ratio: 2.511 (1.079, 5.842)"
same,Adequate Relief of Bloating at the End of the Treatment Phase: Failure,"[1]; Male, RFX 550 4 w (N = 98)",16 (72.7%) n (%)
same,Adequate Relief of Bloating at the End of the Treatment Phase: Success,"[1]; Male, RFX 550 4 w (N = 98)",6 (27.3%) n (%)
same,Adequate Relief of IBS Symptoms at the End of the Treatment Phase: Failure,"[1]; Male, RFX 550 4 w (N = 98)",15 (68.2%) n (%)
same,Adequate Relief of IBS Symptoms at the End of the Treatment Phase: Success,"[1]; Male, RFX 550 4 w (N = 98)",7 (31.8%) n (%)
same,Percentage of Subjects with Adequate Relief of Bloating Symptom,[1],46%
same,Percentage of Subjects with Adequate Relief of IBS Symptoms,[1],52%
same,Percentage of Subjects with Adequate Relief of Bloating Symptom,[1]; listed as RFX,46.1%
same,Percentage of Subjects with Adequate Relief of IBS Symptoms,[1]; listed as RFX,52.4%
same,"Odds Ratio Estimate, Number of Weeks with Adequate Relief of Bloating Symptoms","[1]; RFX 550 mg BID vs placebo, ITT",1.57
same,"Odds Ratio Estimate, Number of Weeks with Adequate Relief of IBS Symptoms","[1]; RFX 550 mg BID vs placebo, ITT",1.54
same,"Odds Ratio Estimate, Adequate Relief of Bloating Symptom",[1]; [3],1.6 and 1.58
same,"Odds Ratio Estimate, Adequate Relief of IBS Symptoms",[1]; [3],1.6
same,Adequate relief of IBS symptoms during post-treatment follow-up,[1]; [4],62.3%
same,Adequate relief of the symptom of bloating during post-treatment follow-up,[1]; [4],59.3%
same,"Adequate Relief of Bloating, Post Treatment: Failures",[1]; Week 6,5 (9.3%) n (%)
same,"Adequate Relief of Bloating, Post Treatment: Success",[1]; Week 6,49 (90.7%) n (%)
same,"odds ratio, Adequate Relief of Bloating, Post Treatment","[1]; Week 6, RFX 550 2 w vs. PBO","Comparison of RFX 550 2 w vs. PBO p-value: 0.1303, odds ratio: 3.840"
same,"Adequate Relief of Bloating, Post Treatment: Failures",[1]; Week 7,9 (16.7%) n (%)
same,"Adequate Relief of Bloating, Post Treatment: Success",[1]; Week 7,45 (83.3%) n (%)
same,"odds ratio, Adequate Relief of Bloating, Post Treatment","[1]; Week 7, RFX 550 2 w vs. PBO","Comparison of RFX 550 2 w vs. PBO p-value: 0.1311, odds ratio: 2.931"
same,"Adequate Relief of Bloating, Post Treatment: Failures",[1]; Week 8,7 (13.0%) n (%)
same,"Adequate Relief of Bloating, Post Treatment: Success",[1]; Week 8,47 (87.0%) n (%)
same,"odds ratio, Adequate Relief of Bloating, Post Treatment","[1]; Week 8, RFX 550 2 w vs. PBO","Comparison of RFX 550 2 w vs. PBO p-value: 0.2858, odds ratio: 2.107"
same,"Adequate Relief of Bloating, Post Treatment: Failures",[1]; Week 9,15 (27.8%) n (%)
same,"Adequate Relief of Bloating, Post Treatment: Success",[1]; Week 9,39 (72.2%) n (%)
same,"odds ratio, Adequate Relief of Bloating, Post Treatment","[1]; Week 9, RFX 550 2 w vs. PBO","Comparison of RFX 550 2 w vs. PBO p-value: 0.0814, odds ratio: 2.737"
same,"Adequate Relief of Bloating, Post Treatment: Failures",[1]; Week 10,15 (27.8%) n (%)
same,"Adequate Relief of Bloating, Post Treatment: Success",[1]; Week 10,39 (72.2%) n (%)
same,"odds ratio, Adequate Relief of Bloating, Post Treatment","[1]; Week 10, RFX 550 2 w vs. PBO","Comparison of RFX 550 2 w vs. PBO p-value: 0.0217, odds ratio: 3.828"
same,"Adequate Relief of Bloating, Post Treatment: Failures",[1]; Week 11,19 (35.2%) n (%)
same,"Adequate Relief of Bloating, Post Treatment: Success",[1]; Week 11,35 (64.8%) n (%)
same,"odds ratio, Adequate Relief of Bloating, Post Treatment","[1]; Week 11, RFX 550 2 w vs. PBO","Comparison of RFX 550 2 w vs. PBO p-value: 0.0398, odds ratio: 3.115"
same,"Adequate Relief of Bloating, Post Treatment: Failure",[1]; Week 12,18 (33.3%) n (%)
same,"Adequate Relief of Bloating, Post Treatment: Success",[1]; Week 12,36 (66.7%) n (%)
same,"odds ratio, Adequate Relief of Bloating, Post Treatment","[1]; Week 12, RFX 550 2 w vs. PBO","Comparison of RFX 550 2 w vs. PBO p-value: 0.0596, odds ratio: 2.891"
same,"Adequate Relief of Bloating, Post Treatment: Failure",[1]; Week 13,21 (38.9%) n (%)
same,"Adequate Relief of Bloating, Post Treatment: Success",[1]; Week 13,33 (61.1%) n (%)
same,"odds ratio, Adequate Relief of Bloating, Post Treatment","[1]; Week 13, RFX 550 2 w vs. PBO","Comparison of RFX 550 2 w vs. PBO p-value: 0.0142, odds ratio: 4.187"
same,"Adequate Relief of Bloating, Post Treatment: Failure",[1]; Week 14,20 (37.0%) n (%)
same,"Adequate Relief of Bloating, Post Treatment: Success",[1]; Week 14,34 (63.0%) n (%)
same,"odds ratio, Adequate Relief of Bloating, Post Treatment","[1]; Week 14, RFX 550 2 w vs. PBO","Comparison of RFX 550 2 w vs. PBO p-value: 0.0121, odds ratio: 4.230"
same,"Adequate Relief of Bloating, Post Treatment: Failure",[1]; Week 15,23 (42.6%) n (%)
same,"Adequate Relief of Bloating, Post Treatment: Success",[1]; Week 15,31 (57.4%) n (%)
same,"odds ratio, Adequate Relief of Bloating, Post Treatment","[1]; Week 15, RFX 550 2 w vs. PBO","Comparison of RFX 550 2 w vs. PBO p-value: 0.0391, odds ratio: 3.323"
same,"Adequate Relief of Bloating, Post Treatment: Failure",[1]; Week 16,22 (40.7%) n (%)
same,"Adequate Relief of Bloating, Post Treatment: Success",[1]; Week 16,32 (59.3%) n (%)
same,"odds ratio, Adequate Relief of Bloating, Post Treatment","[1]; Week 16, RFX 550 2 w vs. PBO","Comparison of RFX 550 2 w vs. PBO p-value: 0.0212, odds ratio: 3.700"
same,Treatment effect (Bloating),[1]; dIBS Type: aIBS,"31.4%*, 31.4%"
same,Treatment effect (IBS Sx),[1]; dIBS Type: aIBS,"31.4%*, 31.4%"
same,Treatment effect (Bloating),[1]; dIBS Type: dIBS only,4.5%
same,Treatment effect (IBS Sx),[1]; dIBS Type: dIBS only,6.3%
same,Patients with adequate relief of bloating,[1]; [5],44%
same,Patients with adequate relief of global IBS symptoms,[1]; [5],50%
same,Patients with adequate relief of bloating,[1]; [6],47%
same,Patients with adequate relief of global IBS symptoms,[1]; [6],56%
same,"Tolerability, incidence of adverse events compared with placebo",[2],well tolerated
